According to the NIST ThermoML archive (doi:10.1021/je900404r):

Assays:
[1] = xn = mol fraction of the nth substance listed; conditions: 101 kPa, Liquid, Vibrating tube method
[2] = 101 kPa, Liquid, Vibrating tube method

O=C1CCCCC1 [cyclohexanone] + ClC(Cl)Cl
[1], x2 = 0
Conditions | mass density [kg/m3]
288.15 K | 951.69
298.15 K | 942.76
308.15 K | 933.8
318.15 K | 924.82

ClC(Cl)C(Cl)Cl [1,1,2,2-tetrachloroethane] + O=C1CCCCC1
mass density [kg/m3], [1]
Conditions | x1 = 0.1147 | x1 = 0.2121 | x1 = 0.3045 | x1 = 0.4052 | x1 = 0.4996 | x1 = 0.5909 | x1 = 0.6868 | x1 = 0.782 | x1 = 0.8798 | x1 = 1
288.15 K | 1029.34 | 1094.87 | 1156.78 | 1223.8 | 1286.07 | 1345.8 | 1407.73 | 1468.5 | 1530.11 | 1604.75
298.15 K | 1019.79 | 1084.77 | 1146.13 | 1212.52 | 1274.18 | 1333.31 | 1394.58 | 1454.64 | 1515.52 | 1589.18
308.15 K | 1010.2 | 1074.62 | 1135.43 | 1201.2 | 1262.26 | 1320.77 | 1381.38 | 1440.76 | 1500.89 | 1573.57
318.15 K | 1000.58 | 1064.44 | 1124.7 | 1189.84 | 1250.3 | 1308.2 | 1368.14 | 1426.83 | 1486.23 | 1557.94

O=C1CCCCC1 [cyclohexanone] + ClCCCl
[1], x2 = 0
Conditions | mass density [kg/m3]
288.15 K | 951.69
298.15 K | 942.76
308.15 K | 933.8
318.15 K | 924.82

ClCCCCl [1,3-dichloropropane] + O=C1CCCCC1
mass density [kg/m3], [1]
Conditions | x1 = 0.1276 | x1 = 0.227 | x1 = 0.3268 | x1 = 0.4189 | x1 = 0.514 | x1 = 0.6112 | x1 = 0.7147 | x1 = 0.8103 | x1 = 0.8979 | x1 = 1
288.15 K | 979.76 | 1001.99 | 1024.79 | 1046.27 | 1068.86 | 1092.38 | 1118.03 | 1142.26 | 1164.89 | 1191.93
298.15 K | 970.5 | 992.46 | 1014.95 | 1036.15 | 1058.41 | 1081.63 | 1106.86 | 1130.71 | 1152.99 | 1179.58
308.15 K | 961.22 | 982.9 | 1005.09 | 1025.99 | 1047.94 | 1070.82 | 1095.64 | 1119.11 | 1141.03 | 1167.16
318.15 K | 951.9 | 973.3 | 995.19 | 1015.78 | 1037.41 | 1059.94 | 1084.36 | 1107.45 | 1128.99 | 1154.67

O=C1CCCCC1 [cyclohexanone] + ClC(Cl)C(Cl)Cl
[1], x2 = 0
Conditions | mass density [kg/m3]
288.15 K | 951.69
298.15 K | 942.76
308.15 K | 933.8
318.15 K | 924.82

CC(Cl)(Cl)Cl [1,1,1-trichloroethane] + O=C1CCCCC1
mass density [kg/m3], [1]
Conditions | x1 = 0.1151 | x1 = 0.2288 | x1 = 0.3155 | x1 = 0.4163 | x1 = 0.5167 | x1 = 0.6059 | x1 = 0.7081 | x1 = 0.8062 | x1 = 0.8979 | x1 = 1
288.15 K | 996.74 | 1041.75 | 1076.19 | 1116.3 | 1156.17 | 1191.52 | 1231.85 | 1270.3 | 1305.81 | 1344.95
298.15 K | 987.13 | 1031.43 | 1065.28 | 1104.68 | 1143.81 | 1178.45 | 1217.94 | 1255.52 | 1290.16 | 1328.27
308.15 K | 977.49 | 1021.06 | 1054.33 | 1093.01 | 1131.39 | 1165.33 | 1203.95 | 1240.64 | 1274.41 | 1311.45
318.15 K | 967.81 | 1010.65 | 1043.33 | 1081.28 | 1118.9 | 1152.12 | 1189.86 | 1225.64 | 1258.51 | 1294.47

ClC(Cl)Cl [trichloromethane] + O=C1CCCCC1
mass density [kg/m3], [1]
Conditions | x1 = 0.1198 | x1 = 0.2362 | x1 = 0.305 | x1 = 0.4235 | x1 = 0.5103 | x1 = 0.6047 | x1 = 0.6953 | x1 = 0.8109 | x1 = 0.9089 | x1 = 1
288.15 K | 1004.15 | 1058.19 | 1091.64 | 1151.88 | 1198.22 | 1250.45 | 1303.06 | 1372.1 | 1433.35 | 1491.86
298.15 K | 994.58 | 1047.93 | 1080.94 | 1140.29 | 1185.89 | 1237.16 | 1288.8 | 1356.3 | 1416.12 | 1473.16
308.15 K | 984.97 | 1037.61 | 1070.16 | 1128.62 | 1173.48 | 1223.78 | 1274.42 | 1340.36 | 1398.68 | 1454.07
318.15 K | 975.32 | 1027.25 | 1059.32 | 1116.88 | 1160.97 | 1210.28 | 1259.9 | 1324.23 | 1381.01 | 1434.72

ClCCCCCl [1,4-dichlorobutane]
[2]
Conditions | mass density [kg/m3]
288.15 K | 1143.49
298.15 K | 1132.57
308.15 K | 1121.61
318.15 K | 1110.61

CC(Cl)(Cl)Cl [1,1,1-trichloroethane]
[2]
Conditions | mass density [kg/m3]
288.15 K | 1344.95
298.15 K | 1328.27
308.15 K | 1311.45
318.15 K | 1294.47

CCCCCl [1-chlorobutane]
[2]
Conditions | mass density [kg/m3]
288.15 K | 892.1
298.15 K | 881.05
308.15 K | 869.86
318.15 K | 858.52

O=C1CCCCC1 [cyclohexanone] + CC(Cl)(Cl)Cl
[1], x2 = 0
Conditions | mass density [kg/m3]
288.15 K | 951.69
298.15 K | 942.76
308.15 K | 933.8
318.15 K | 924.82

ClC(Cl)Cl [trichloromethane]
[2]
Conditions | mass density [kg/m3]
288.15 K | 1491.86
298.15 K | 1473.16
308.15 K | 1454.07
318.15 K | 1434.72

O=C1CCCCC1 [cyclohexanone] + CCCCCl
[1], x2 = 0
Conditions | mass density [kg/m3]
288.15 K | 951.69
298.15 K | 942.76
308.15 K | 933.8
318.15 K | 924.82

ClCCCl [1,2-dichloroethane] + O=C1CCCCC1
mass density [kg/m3], [1]
Conditions | x1 = 0.1142 | x1 = 0.2318 | x1 = 0.3197 | x1 = 0.4227 | x1 = 0.519 | x1 = 0.6155 | x1 = 0.7061 | x1 = 0.8134 | x1 = 0.9145 | x1 = 1
288.15 K | 978.81 | 1008.61 | 1032.1 | 1061.02 | 1089.5 | 1119.7 | 1149.67 | 1187.43 | 1225.5 | 1260.01
298.15 K | 969.5 | 998.88 | 1022 | 1050.47 | 1078.46 | 1108.12 | 1137.52 | 1174.53 | 1211.76 | 1245.48
308.15 K | 960.16 | 989.1 | 1011.86 | 1039.86 | 1067.36 | 1096.48 | 1125.3 | 1161.53 | 1197.92 | 1230.83
318.15 K | 950.78 | 979.28 | 1001.67 | 1029.19 | 1056.19 | 1084.75 | 1112.98 | 1148.42 | 1183.96 | 1216.04

O=C1CCCCC1 [cyclohexanone] + ClCCCCCl
[1], x2 = 0
Conditions | mass density [kg/m3]
288.15 K | 951.69
298.15 K | 942.76
308.15 K | 933.8
318.15 K | 924.82

O=C1CCCCC1 [cyclohexanone] + ClCCCCl
[1], x2 = 0
Conditions | mass density [kg/m3]
288.15 K | 951.69
298.15 K | 942.76
308.15 K | 933.8
318.15 K | 924.82

ClCCCCCl [1,4-dichlorobutane] + O=C1CCCCC1
mass density [kg/m3], [1]
Conditions | x1 = 0.1063 | x1 = 0.1969 | x1 = 0.2901 | x1 = 0.3808 | x1 = 0.4803 | x1 = 0.5814 | x1 = 0.6763 | x1 = 0.7751 | x1 = 0.8849 | x1 = 1
288.15 K | 973.11 | 991.09 | 1009.39 | 1027.04 | 1046.24 | 1065.55 | 1083.46 | 1101.96 | 1122.33 | 1143.49
298.15 K | 964 | 981.82 | 999.94 | 1017.42 | 1036.41 | 1055.52 | 1073.23 | 1091.52 | 1111.66 | 1132.57
308.15 K | 954.86 | 972.51 | 990.46 | 1007.76 | 1026.55 | 1045.46 | 1062.97 | 1081.05 | 1100.96 | 1121.61
318.15 K | 945.69 | 963.17 | 980.95 | 998.07 | 1016.66 | 1035.37 | 1052.68 | 1070.54 | 1090.21 | 1110.61

CCCCCl [1-chlorobutane] + O=C1CCCCC1
mass density [kg/m3], [1]
Conditions | x1 = 0.1152 | x1 = 0.2084 | x1 = 0.3068 | x1 = 0.4067 | x1 = 0.5041 | x1 = 0.5841 | x1 = 0.692 | x1 = 0.7881 | x1 = 0.882 | x1 = 1
288.15 K | 945.58 | 940.43 | 934.95 | 929.27 | 923.6 | 918.86 | 912.28 | 906.18 | 900.11 | 892.1
298.15 K | 936.47 | 931.18 | 925.51 | 919.65 | 913.78 | 908.86 | 902.02 | 895.71 | 889.37 | 881.05
308.15 K | 927.34 | 921.88 | 916.03 | 909.97 | 903.89 | 898.78 | 891.68 | 885.12 | 878.54 | 869.86
318.15 K | 918.17 | 912.54 | 906.5 | 900.22 | 893.92 | 888.63 | 881.25 | 874.42 | 867.57 | 858.52
